Where two headings read alike, the source gives them in different places.
Tests used:
human CB2 receptor = human CB2 receptor (Homo sapiens (Human), UniProt P34972); experiment: CB2 receptor binding assay ([3H]CP-55,940 displacement, HEK-293 membranes)
human recombinant CB1R = human recombinant CB1R (Homo sapiens (Human), UniProt P21554); experiment: CB1 receptor binding assay ([3H]CP-55,940 displacement, HEK-293 membranes); conditions: membranes of HEK-293 cells with human recombinant CB1R, [3H]CP-55,940, read-out: CB1 IC50
Outline: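 Displacement of [3H]CP-55,940 was measured on human CB1R- or CB2R-transfected HEK-293 membranes after 120 min at 37 °C, in duplicate, with filtration and scintillation counting. For CB2R, incubation used Tris-HCl 50 mM, MgCl2 5 mM, CaCl2 1 mM, BSA 0.2%, pH 7.4. Ki values were derived from variable-slope IC50 fits using Cheng–Prusoff.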

[1] = membranes of HEK-293 cells with human recombinant CB2R, [3H]CP-55,940, read-out: CB2 IC50
[2] = membranes of HEK-293 cells with human recombinant CB2R, [3H]CP-55,940, class symbols, read-out: CB2 IC50

Sequence of human recombinant CB1R (P21554 whole entry): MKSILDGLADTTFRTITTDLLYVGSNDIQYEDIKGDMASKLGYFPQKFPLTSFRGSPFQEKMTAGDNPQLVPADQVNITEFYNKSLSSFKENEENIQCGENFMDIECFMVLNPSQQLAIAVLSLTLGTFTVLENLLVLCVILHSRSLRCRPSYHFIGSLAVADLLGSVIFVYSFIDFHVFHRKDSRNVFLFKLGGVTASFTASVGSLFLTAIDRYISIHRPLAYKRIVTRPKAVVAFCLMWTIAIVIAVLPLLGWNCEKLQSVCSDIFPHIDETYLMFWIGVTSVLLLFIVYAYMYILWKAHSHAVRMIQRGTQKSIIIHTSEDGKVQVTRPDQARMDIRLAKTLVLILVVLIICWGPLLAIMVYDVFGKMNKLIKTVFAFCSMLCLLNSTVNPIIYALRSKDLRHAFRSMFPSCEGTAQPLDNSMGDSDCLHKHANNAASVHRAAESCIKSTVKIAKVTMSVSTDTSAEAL
Sequence of human CB2 receptor (P34972 whole entry): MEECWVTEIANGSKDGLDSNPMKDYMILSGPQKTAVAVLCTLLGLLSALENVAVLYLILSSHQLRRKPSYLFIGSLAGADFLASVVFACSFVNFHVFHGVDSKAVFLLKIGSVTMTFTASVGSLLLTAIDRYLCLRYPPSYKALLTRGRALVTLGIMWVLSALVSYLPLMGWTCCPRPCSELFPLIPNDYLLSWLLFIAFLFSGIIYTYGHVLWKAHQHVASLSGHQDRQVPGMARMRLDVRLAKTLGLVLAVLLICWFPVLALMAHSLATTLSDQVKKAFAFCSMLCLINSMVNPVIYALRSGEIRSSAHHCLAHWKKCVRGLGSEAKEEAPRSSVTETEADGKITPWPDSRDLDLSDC

| SMILES | IC50 (human CB2 receptor; [1]) | IC50 (human recombinant CB1R) | IC50 (human CB2 receptor) | IC50 (human recombinant CB1R; class symbols) | IC50 (human CB2 receptor; [2]) |
| --- | --- | --- | --- | --- | --- |
| O=C(NC12CCC(CC1)CC2)c1c(O)c2cc(-c3ccc(F)cc3)cnc2n(CCN2CCOCC2)c1=O [Compound 116, N-(bicyclo[2.2.2]octan-1-yl)-6-(4-fluorophenyl)-4-hydroxy-1-(2-morpholinoethyl)-2-oxo-1,2-dihydro-1,8-naphthyridine-3-carboxamide] | 0.031 µM | 1.48 µM | – | – | – |
| CC(C)(CO)NC(=O)c1c(O)c2cc(-c3ccc(F)cc3)cnc2n(CCN2CCOCC2)c1=O [Compound 117, 6-(4-fluorophenyl)-4-hydroxy-N-(1-hydroxy-2-methylpropan-2-yl)-1-(2-morpholinoethyl)-2-oxo-1,2-dihydro-1,8-naphthyridine-3-carboxamide] | – | – | 0.1 to 0.999 µM | > 1 µM | – |
| CC(C)(C)NC(=O)c1c(O)c2cc(-c3ccc(F)cc3)cnc2n(CCN2CCOCC2)c1=O [Compound 118, N-(tert-butyl)-6-(4-fluorophenyl)-4-hydroxy-1-(2-morpholinoethyl)-2-oxo-1,2-dihydro-1,8-naphthyridine-3-carboxamide] | – | – | 0.1 to 0.999 µM | > 1 µM | – |
| COC(=O)C(C)(C)NC(=O)c1c(O)c2cc(-c3ccc(F)cc3)cnc2n(CCN2CCOCC2)c1=O [Compound 119, methyl 2-(6-(4-fluorophenyl)-4-hydroxy-1-(2-morpholinoethyl)-2-oxo-1,2-dihydro-1,8-naphthyridine-3-carboxamido)-2-methylpropanoate] | – | – | 0.1 to 0.999 µM | > 1 µM | – |
| CC(C)(NC(=O)c1c(O)c2cc(-c3ccc(F)cc3)cnc2n(CCN2CCOCC2)c1=O)C(=O)O [Compound 120, 2-(6-(4-fluorophenyl)-4-hydroxy-1-(2-morpholinoethyl)-2-oxo-1,2-dihydro-1,8-naphthyridine-3-carboxamido)-2-methylpropanoic acid] | – | – | – | > 1 µM | > 1 µM |
| O=C(NC1(CO)CCCCC1)c1c(O)c2cc(-c3ccc(F)cc3)cnc2n(CCN2CCOCC2)c1=O [Compound 121, 6-(4-fluorophenyl)-4-hydroxy-N-(1-(hydroxymethyl)cyclohexyl)-1-(2-morpholinoethyl)-2-oxo-1,2-dihydro-1,8-naphthyridine-3-carboxamide] | 0.009 µM | 2.31 µM | – | – | – |
| O=C(NC12CC(C1)C2)c1c(O)c2cc(-c3ccc(F)cn3)cnc2n(CCN2CCOCC2)c1=O [Compound 122, N-(bicyclo[1.1.1]pentan-1-yl)-6-(5-fluoropyridin-2-yl)-4-hydroxy-1-(2-morpholinoethyl)-2-oxo-1,2-dihydro-1,8-naphthyridine-3-carboxamide] | – | – | 0.1 to 0.999 µM | > 1 µM | – |
| O=C(NC12CC(C1)C2)c1c(O)c2cc(-c3cccnc3)cnc2n(CCN2CCOCC2)c1=O [Compound 123, N-(bicyclo[1.1.1]pentan-1-yl)-4-hydroxy-1-(2-morpholinoethyl)-2-oxo-6-(pyridin-3-yl)-1,2-dihydro-1,8-naphthyridine-3-carboxamide] | – | – | – | > 1 µM | > 1 µM |
| O=C(NC12CC(C1)C2)c1c(O)c2cc(-c3ccncc3)cnc2n(CCN2CCOCC2)c1=O [Compound 124, N-(bicyclo[1.1.1]pentan-1-yl)-4-hydroxy-1-(2-morpholinoethyl)-2-oxo-6-(pyridin-4-yl)-1,2-dihydro-1,8-naphthyridine-3-carboxamide] | – | – | – | > 1 µM | > 1 µM |
| O=C(NC12CC(C1)C2)c1c(O)c2cc(C3=CCCC3)cnc2n(CCN2CCOCC2)c1=O [Compound 125, N-(bicyclo[1.1.1]pentan-1-yl)-6-(cyclopent-1-en-1-yl)-4-hydroxy-1-(2-morpholinoethyl)-2-oxo-1,2-dihydro-1,8-naphthyridine-3-carboxamide] | – | – | 0.1 to 0.999 µM | > 1 µM | – |
| O=C(NC12CC(C1)C2)c1c(O)c2cc(C3CCCC3)cnc2n(CCN2CCOCC2)c1=O [Compound 126, N-(bicyclo[1.1.1]pentan-1-yl)-6-cyclopentyl-4-hydroxy-1-(2-morpholinoethyl)-2-oxo-1,2-dihydro-1,8-naphthyridine-3-carboxamide] | – | – | – | > 1 µM | > 1 µM |
| O=C(NC12CC(C1)C2)c1c(O)c2cc(C3CCC3)cnc2n(CCN2CCOCC2)c1=O [Compound 127, N-(bicyclo[1.1.1]pentan-1-yl)-6-cyclobutyl-4-hydroxy-1-(2-morpholinoethyl)-2-oxo-1,2-dihydro-1,8-naphthyridine-3-carboxamide] | – | – | – | > 1 µM | > 1 µM |
| O=C(NC12CC(C1)C2)c1c(O)c2cc(-c3ccc(F)cc3)cnc2n(CCN2CCCCC2)c1=O [Compound 128, N-(bicyclo[1.1.1]pentan-1-yl)-6-(4-fluorophenyl)-4-hydroxy-2-oxo-1-(2-(piperidin-1-yl)ethyl)-1,2-dihydro-1,8-naphthyridine-3-carboxamide] | – | – | 0.1 to 0.999 µM | > 1 µM | – |
| O=C(NC12CC(C1)C2)c1c(O)c2cc(-c3ccc(F)cc3)cnc2n(Cc2ccncc2)c1=O [Compound 129, N-(bicyclo[1.1.1]pentan-1-yl)-6-(4-fluorophenyl)-4-hydroxy-2-oxo-1-(pyridin-4-ylmethyl)-1,2-dihydro-1,8-naphthyridine-3-carboxamide] | – | – | – | > 1 µM | > 1 µM |
| O=C(NC12CC(C1)C2)c1c(O)c2cc(-c3ccc(F)cc3)cnc2n(Cc2cccnc2)c1=O [Compound 130, N-(bicyclo[1.1.1]pentan-1-yl)-6-(4-fluorophenyl)-4-hydroxy-2-oxo-1-(pyridin-3-ylmethyl)-1,2-dihydro-1,8-naphthyridine-3-carboxamide] | – | – | – | > 1 µM | > 1 µM |
| O=C(NC12CC(C1)C2)c1c(O)c2cc(-c3ccc(F)cc3)cnc2n(Cc2ccc(F)cn2)c1=O [Compound 131, N-(bicyclo[1.1.1]pentan-1-yl)-6-(4-fluorophenyl)-1-((5-fluoropyridin-2-yl)methyl)-4-hydroxy-2-oxo-1,2-dihydro-1,8-naphthyridine-3-carboxamide] | – | – | – | > 1 µM | > 1 µM |
| CN1CCN(CCn2c(=O)c(C(=O)NC34CC(C3)C4)c(O)c3cc(-c4ccc(F)cc4)cnc32)CC1 [Compound 132, N-(bicyclo[1.1.1]pentan-1-yl)-6-(4-fluorophenyl)-4-hydroxy-1-(2-(4-methylpiperazin-1-yl)ethyl)-2-oxo-1,2-dihydro-1,8-naphthyridine-3-carboxamide] | – | – | 0.1 to 0.999 µM | > 1 µM | – |
| O=C(NC12CC(C1)C2)c1c(O)c2cc(-c3ccc(F)cc3)cnc2n(CCN2CCC(F)CC2)c1=O [Compound 133, N-(bicyclo[1.1.1]pentan-1-yl)-6-(4-fluorophenyl)-4-hydroxy-2-oxo-1-(2-(4-fluoropiperidin-1-yl)ethyl)-1,2-dihydro-1,8-naphthyridine-3-carboxamide] | – | – | 0.1 to 0.999 µM | > 1 µM | – |
| O=C(NC1CC2(CCC2)C1)c1c(O)c2cccnc2n(Cc2ccc(F)cc2)c1=O [Compound 134, 1-(4-fluorobenzyl)-4-hydroxy-2-oxo-N-(spiro[3.3]heptan-2-yl)-1,2-dihydro-1,8-naphthyridine-3-carboxamide] | – | – | 0.1 to 0.999 µM | > 1 µM | – |
| O=C(NC1CC2(CCC2)C1)c1c(O)c2cccnc2n(CCN2CCOCC2)c1=O [Compound 135, 4-hydroxy-2-oxo-1-(2-morpholinoethyl)-N-(spiro[3.3]heptan-2-yl)-1,2-dihydro-1,8-naphthyridine-3-carboxamide] | – | – | – | > 1 µM | < 0.1 µM |
| O=C(NC12CC(C1)C2)c1c(O)c2cccnc2n(CCN2CCOCC2)c1=O [Compound 136, N-(bicyclo[1.1.1]pentan-1-yl)-4-hydroxy-1-(2-morpholinoethyl)-2-oxo-1,2-dihydro-1,8-naphthyridine-3-carboxamide] | – | – | – | > 1 µM | > 1 µM |
| C[C@H]1CC[C@@H](NC(=O)c2c(O)c3cccnc3n(CCN3CCOCC3)c2=O)CC1 [Compound 137, 4-hydroxy-N-((1s, 4s)-4-methylcyclohexyl)-1-(2-morpholinoethyl)-2-oxo-1,2-dihydro-1,8-naphthyridine-3-carboxamide] | 0.015 µM | > 10 µM | – | – | – |
| O=C(NC1(CO)CCCCC1)c1c(O)c2cccnc2n(CCN2CCOCC2)c1=O [Compound 138, 4-hydroxy-N-[1-(hydroxymethyl)cyclohexyl]-1-(2-morpholinoethyl)-2-oxo-1,8-naphthyridine-3-carboxamide] | – | – | 0.1 to 0.999 µM | > 1 µM | – |
| O=C(NC12CC(C1)C2)c1c(O)c2cccnc2n(Cc2ccc(F)cc2)c1=O [Compound 139, N-(1-bicyclo[1.1.1]pentanyl)-1-[(4-fluorophenyl)methyl]-4-hydroxy-2-oxo-1,8-naphthyridine-3-carboxamide] | – | – | – | > 1 µM | > 1 µM |
| CC(C)(CO)NC(=O)c1c(O)c2cccnc2n(Cc2ccc(F)cc2)c1=O [Compound 140, 1-[(4-fluorophenyl)methyl]-4-hydroxy-N-(2-hydroxy-1,1-dimethyl-ethyl)-2-oxo-1,8-naphthyridine-3-carboxamide] | – | – | 0.1 to 0.999 µM | > 1 µM | – |
| CC12CC(NC(=O)c3c(O)c4cccnc4n(Cc4ccc(F)cc4)c3=O)(C1)C2 [Compound 141, 1-[(4-fluorophenyl)methyl]-4-hydroxy-N-(3-methyl-1-bicyclo[1.1.1]pentanyl)-2-oxo-1,8-naphthyridine-3-carboxamide] | – | – | 0.1 to 0.999 µM | > 1 µM | – |
| O=C(NC1CC2(CC2)C1)c1c(O)c2cccnc2n(Cc2ccc(F)cc2)c1=O [Compound 142, 1-[(4-fluorophenyl)methyl]-4-hydroxy-2-oxo-N-spiro[2.3]hexan-5-yl-1,8-naphthyridine-3-carboxamide] | – | – | 0.1 to 0.999 µM | > 1 µM | – |

— US11564928B1, “Cannabinoid receptor type 2 (CB2) modulators and uses thereof” (Teon Therapeutics, Inc., priority 2020, dated 2023)
